Assay results: patent US20230192705A1, “SHP2 INHIBITORS, COMPOSITIONS AND USES THEREOF” (Betta Pharmaceuticals Co., Ltd, priority 2020, published 2023)

Molecular target: T1, SHP2 (Homo sapiens, UniProt Q06124)
T1 sequence (Q06124 1-593): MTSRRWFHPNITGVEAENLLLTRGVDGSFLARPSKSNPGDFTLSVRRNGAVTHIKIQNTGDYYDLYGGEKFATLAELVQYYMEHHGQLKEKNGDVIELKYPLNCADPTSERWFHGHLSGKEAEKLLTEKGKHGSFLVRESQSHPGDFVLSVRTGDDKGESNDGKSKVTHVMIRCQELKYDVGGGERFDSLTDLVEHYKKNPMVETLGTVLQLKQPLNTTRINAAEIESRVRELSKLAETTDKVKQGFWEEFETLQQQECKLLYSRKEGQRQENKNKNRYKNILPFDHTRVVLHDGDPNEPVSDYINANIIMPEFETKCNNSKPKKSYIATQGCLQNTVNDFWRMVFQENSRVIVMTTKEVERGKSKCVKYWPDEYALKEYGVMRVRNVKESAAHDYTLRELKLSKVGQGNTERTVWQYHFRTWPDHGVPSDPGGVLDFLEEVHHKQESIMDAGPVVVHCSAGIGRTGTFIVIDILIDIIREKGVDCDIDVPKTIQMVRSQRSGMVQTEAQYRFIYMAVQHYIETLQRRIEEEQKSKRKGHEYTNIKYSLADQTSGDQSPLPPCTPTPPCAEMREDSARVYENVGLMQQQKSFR
Test: SHP2 allosteric inhibitor enzyme activity assay (DiFMUP fluorescence)
Format: biochemical
Conditions: class symbols
Summary of the method: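 SHP2 activated by 0.5 μM IRS1_pY1172(dPEG8)pY1222 peptide, 0.2 ng enzyme per well, 1 h at room temperature with compound (1 μM top, 3-fold series), then DiFMUP substrate 1 h. Buffer: 60 mM HEPES, 75 mM NaCl, 75 mM KCl, 0.05% BRIJ-35, 1 mM EDTA, 5 mM DTT. Fluorescence ex 340/em 450 nm; IC50 by variable-slope fit.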

SMILES	IC50 [nM]
N[C@@H]1c2ccccc2CC12CCN(c1nc3[nH]nc(C4(c5ccnnc5)CC4)c3c(=O)[nH]1)CC2 [Example 71, (S)-6-(1-amino-1,3-dihydrospiro[indene-2,4′-piperidin]-1′-yl)-3-(1-(pyridazin-4-yl)cyclopropyl)-1,5-dihydro-4H-pyrazolo[3,4-d]pyrimidin-4-one]	≤ 20
N[C@@H]1c2ccccc2CC12CCN(c1nc3[nH]nc(C4(c5ccnc(NC6CC6)c5Cl)CC4)c3c(=O)[nH]1)CC2 [Example 72, (S)-6-(1-amino-1,3-dihydrospiro[indene-2,4′-piperidin]-1′-yl)-3-(1-(3-chloro-2-(cyclopropylamino)pyridin-4-yl)cyclopropyl)-1,5-dihydro-4H-pyrazolo[3,4-d]pyrimidin-4-one]	≤ 20
Cn1ccc(C2(c3n[nH]c4nc(N5CCC6(CC5)Cc5ccccc5[C@H]6N)[nH]c(=O)c34)CC2)c(Cl)c1=O [Example 73, (S)-6-(1-amino-1,3-dihydrospiro[indene-2,4′-piperidin]-1′-yl)-3-(1-(3-chloro-1-methyl-2-oxo-1,2-dihydropyridin-4-yl)cyclopropyl)-1,5-dihydro-4H-pyrazolo[3,4-d]pyrimidin-4-one]	≤ 20
N[C@@H]1c2ccccc2CC12CCN(c1nc3[nH]nc(C4(c5cccc6ccccc56)CC4)c3c(=O)[nH]1)CC2 [Example 77, (S)-6-(1-amino-1,3-dihydrospiro[indene-2,4′-piperidin]-1′-yl)-3-(1-(naphthalen-1-yl)cyclopropyl)-1,5-dihydro-4H-pyrazolo[3,4-d]pyrimidin-4-one]	≤ 20
N[C@@H]1c2ccccc2CC12CCN(c1nc3[nH]nc(C4(c5ccnc6ccccc56)CC4)c3c(=O)[nH]1)CC2 [Example 78, (S)-6-(1-amino-1,3-dihydrospiro[indene-2,4′-piperidin]-1′-yl)-3-(1-(quinolin-4-yl)cyclopropyl)-1,5-dihydro-4H-pyrazolo[3,4-d]pyrimidin-4-one]	≤ 20
N[C@@H]1c2ccccc2CC12CCN(c1nc3[nH]nc(C4(c5ccnc6c5CCCN6)CC4)c3c(=O)[nH]1)CC2 [Example 79, (S)-6-(1-amino-1,3-dihydrospiro[indene-2,4′-piperidin]-1′-yl)-3-(1-(5,6,7,8-tetrahydro-1,8-naplitliyridin-4-yl)cyclopropyl)-1,5-dihydro-4H-pyrazolo[3,4-d]pyrimidin-4-one]	≤ 20
N[C@@H]1c2ccccc2CC12CCN(c1nc3[nH]nc(C4(c5cccc6occc56)CC4)c3c(=O)[nH]1)CC2 [Example 80, (S)-6-(1-amino-1,3-dihydrospiro[indene-2,4′-piperidin]-1′-yl)-3-(1-(benzofuran-4-yl)cyclopropyl)-1,5-dihydro-4H-pyrazolo[3,4-d]pyrimidin-4-one]	≤ 20
Cn1ccc2c(C3(c4n[nH]c5nc(N6CCC7(CC6)Cc6ccccc6[C@H]7N)[nH]c(=O)c45)CC3)cccc21 [Example 81, (S)-6-(1-amino-1,3-dihydrospiro[indene-2,4′-piperidin]-1′-yl)-3-(1-(1-methyl-1H-indol-4-yl)cyclopropyl)-1,5-dihydro-4H-pyrazolo[3,4-d]pyrimidin-4-one]	≤ 20
N[C@@H]1c2ccccc2CC12CCN(c1nc3[nH]nc(C4(c5cccc6c5CC(=O)N6)CC4)c3c(=O)[nH]1)CC2 [Example 82, (S)-6-(1-amino-1,3-dihydrospiro[indene-2,4′-piperidin]-1′-yl)-3-(1-(2-oxoindolin-4-yl)cyclopropyl)-1,5-dihydro-4H-pyrazolo[3,4-d]pyrimidin-4-one]	≤ 20
N[C@@H]1c2ccccc2CC12CCN(c1nc3[nH]nc(C4(c5cccc6c5COC6)CC4)c3c(=O)[nH]1)CC2 [Example 83, (S)-6-(1-amino-1,3-dihydrospiro[indene-2,4′-piperidin]-1′-yl)-3-(1-(1,3-dihydroisobenzofuran-4-yl)cyclopropyl)-1,5-dihydro-4H-pyrazolo[3,4-d]pyrimidin-4-one]	≤ 20
N[C@@H]1c2ccccc2CC12CCN(c1nc3[nH]nc(C4(c5nccs5)CC4)c3c(=O)[nH]1)CC2 [Example 84, (S)-6-(1-amino-1,3-dihydrospiro[indene-2,4′-piperidin]-1′-yl)-3-(1-(thiazol-2-yl)cyclopropyl)-1,5-dihydro-4H-pyrazolo[3,4-d]pyrimidin-4-one]	≤ 20
N[C@@H]1c2ccccc2CC12CCN(c1nc3[nH]nc(C4(c5cocn5)CC4)c3c(=O)[nH]1)CC2 [Example 85, (S)-6-(1-amino-1,3-dihydrospiro[indene-2,4′-piperidin]-1′-yl)-3-(1-(oxazol-4-yl)cyclopropyl)-1,5-dihydro-4H-pyrazolo[3,4-d]pyrimidin-4-one]	≤ 20
N[C@@H]1c2ccccc2CC12CCN(c1nc3[nH]nc(C4(c5ccnc(-c6ccccc6)c5)CC4)c3c(=O)[nH]1)CC2 [Example 86, (S)-6-(1-amino-1,3-dihydrospiro[indene-2,4′-piperidin]-1′-yl)-3-(1-(2-phenylpyridin-4-yl)cyclopropyl)-1,5-dihydro-4H-pyrazolo[3,4-d]pyrimidin-4-one]	≤ 20
N[C@@H]1c2ccccc2CC12CCN(c1nc3[nH]nc(C4(c5ccnc(-c6ccccn6)c5)CC4)c3c(=O)[nH]1)CC2 [Example 87, (S)-3-(1-([2,2′-bipyridin]-4-yl)cyclopropyl)-6-(1-amino-1,3-dihydrospiro[indene-2,4′-piperidin]-1′-yl)-1,5-dihydro-4H-pyrazolo[3,4-d]pyrimidin-4-one]	≤ 20
Cn1ccc(-c2cc(C3(c4n[nH]c5nc(N6CCC7(CC6)Cc6ccccc6[C@H]7N)[nH]c(=O)c45)CC3)ccn2)n1 [Example 88, (S)-6-(1-amino-1,3-dihydrospiro[indene-2,4′-piperidin]-1′-yl)-3-(1-(2-(1-methyl-1H-pyrazol-3-yl)pyridin-4-yl)cyclopropyl)-1,5-dihydro-4H-pyrazolo[3,4-d]pyrimidin-4-one]	≤ 20
Cc1ncccc1C1(c2n[nH]c3nc(N4CCC5(CC4)Cc4ccccc4[C@H]5N)[nH]c(=O)c23)CC1 [Example 89]	≤ 20
Cn1c(N2CCC3(CC2)Cc2ccccc2[C@H]3N)nc2[nH]nc(C3(c4ccccc4)CCC3)c2c1=O [Example 91, (S)-6-(1-amino-1,3-dihydrospiro[indene-2,4′-piperidin]-1′-yl)-5-methyl-3-(1-phenylcyclobutyl)-1,5-dihydro-4H-pyrazolo[3,4-d]pyrimidin-4-one]	≤ 20
N[C@@H]1c2ccccc2CC12CCN(c1nc3[nH]nc(C4(c5ccccc5)CCC4)c3c3nncn13)CC2 [Example 92, (S)-1′-(9-(1-phenylcyclobutyl)-7H-pyrazolo[4,3-e][1,2,4]triazolo[4,3-c]pyrimidin-5-yl)-1,3-dihydrospiro[indene-2,4′-piperidin]-1-amine]	≤ 20
N[C@@H]1c2ccccc2CC12CCN(c1nc3[nH]nc(C4(c5ccccn5)CCC4)c3c(=O)[nH]1)CC2 [Example 93, (S)-6-(1-amino-1,3-dihydrospiro[indene-2,4′-piperidin]-1′-yl)-3-(1-(pyridin-2-yl)cyclobutyl)-1,5-dihydro-4H-pyrazolo[3,4-d]pyrimidin-4-one]	≤ 20
N[C@@H]1c2ccccc2CC12CCN(c1nc3[nH]nc(C4(c5cccs5)CCC4)c3c(=O)[nH]1)CC2 [Example 94, (S)-6-(1-amino-1,3-dihydrospiro[indene-2,4′-piperidin]-1′-yl)-3-(1-(thiophen-2-yl)cyclobutyl)-1,5-dihydro-4H-pyrazolo[3,4-d]pyrimidin-4-one]	≤ 20
COc1cccc(C2(c3n[nH]c4nc(N5CCC6(CC5)Cc5ccccc5[C@H]6N)[nH]c(=O)c34)CCC2)c1 [Example 95, (S)-6-(1-amino-1,3-dihydrospiro[indene-2,4′-piperidin]-1′-yl)-3-(1-(3-methoxyphenyl)cyclobutyl)-1,5-dihydro-4H-pyrazolo[3,4-d]pyrimidin-4-one]	≤ 20
N[C@@H]1c2ccccc2CC12CCN(c1nc3[nH]nc(C4(c5ccccc5)CCCC4)c3c(=O)[nH]1)CC2 [Example 97, (S)-6-(1-amino-1,3-dihydrospiro[indene-2,4′-piperidin]-1′-yl)-3-(1-phenylcyclopentyl)-1,5-dihydro-4H-pyrazolo[3,4-d]pyrimidin-4-one]	20 to 60
N[C@@H]1c2ccccc2CC12CCN(c1nc3[nH]nc(C4(c5ccccc5)CCOC4)c3c(=O)[nH]1)CC2 (stereo partly drawn) [Example 98, 6-((S)-1-amino-1,3-dihydrospiro[indene-2,4′-piperidin]-1′-yl)-3-(3-phenyltetrahydrofuran-3-yl)-1,5-dihydro-4H-pyrazolo[3,4-d]pyrimidin-4-one]	20 to 60
N[C@@H]1c2ccccc2CC12CCN(c1nc3[nH]nc(C4(c5ccccc5)CCCCC4)c3c(=O)[nH]1)CC2 [Example 99, (S)-6-(1-amino-1,3-dihydrospiro[indene-2,4′-piperidin]-1′-yl)-3-(1-phenylcyclohexyl)-1,5-dihydro-4H-pyrazolo[3,4-d]pyrimidin-4-one]	20 to 60
